# Laboratory results: PMC10520499, “Next step in the development of mesoprogestins: the preclinical profile of EC313” (Frontiers in Endocrinology, 2023)
# Values joined by “and” are separate entries in the source; they are usually repeats but may differ in a detail not shown here. Equal values may be shown once.
# Assays:
# [1] = molecular target: T1, human estrogen receptor α (Homo sapiens, UniProt P03372); experiment: Competitive binding, human estrogen receptor α; details: ERα, full length
# T1 construct: coding for the full length human estrogen receptors α and β, respectively, were obtained from GenScript; made in house; host or cells: HI (Hi5) insect cells, baculovirus; cellular lysate
# T1 sequence (P03372 whole entry): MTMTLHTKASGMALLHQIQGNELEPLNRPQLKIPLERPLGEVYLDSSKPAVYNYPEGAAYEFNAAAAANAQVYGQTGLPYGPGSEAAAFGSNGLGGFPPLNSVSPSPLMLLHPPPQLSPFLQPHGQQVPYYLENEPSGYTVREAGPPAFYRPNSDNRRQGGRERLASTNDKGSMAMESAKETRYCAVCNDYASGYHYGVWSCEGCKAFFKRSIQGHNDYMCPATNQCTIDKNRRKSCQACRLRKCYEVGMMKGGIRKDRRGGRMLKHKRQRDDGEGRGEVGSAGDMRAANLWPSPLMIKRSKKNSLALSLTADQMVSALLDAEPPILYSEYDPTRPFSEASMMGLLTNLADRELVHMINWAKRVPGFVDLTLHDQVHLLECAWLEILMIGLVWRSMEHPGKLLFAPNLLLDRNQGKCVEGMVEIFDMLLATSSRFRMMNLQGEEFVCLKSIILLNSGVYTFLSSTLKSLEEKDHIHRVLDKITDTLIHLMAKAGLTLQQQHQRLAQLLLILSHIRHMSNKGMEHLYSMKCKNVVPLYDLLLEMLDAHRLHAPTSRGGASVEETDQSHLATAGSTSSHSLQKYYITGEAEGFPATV
# Procedure: (§1) The study aimed to characterize the competitive binding profile of EC313 to relevant human nuclear receptors. For the assays, commercially available ‘ligand binding domain’ proteins were purchased (Thermo Fisher Scientific). In addition, the full-length receptor proteins were expressed in transfected HI insect cells using the `Bac-to-bac Baculovirus expression system´ (Thermo Fisher Scientific). Cellular lysates served as receptor preparation. Receptor protein preparations were incubated with tritiated reference ligands and EC313 or reference steroids at concentrations between 0.1 and 1000 nM for 2h at 4°C to reach equilibrium. Subsequently, unbound steroids were adsorbed to dextran-coated charcoal (Sigma Aldrich), separated by filtration, and the remaining radioactivity was quantified in a ß-counter (Perkin Elmer). Displacement curves were fitted using the GraphPad Prism 7 free version to obtain EC50 values. Relative binding affinity (RBA [%], (C50ref/C50test)*100) and the competition coefficient (C50test/C50ref) were used to describe the relative binding potency of EC313 compared to the reference ligands.
# (§2) There are two subtypes of estrogen receptors (ER), ERα and ERβ, coded in different genes. Plasmids pFastBac1-ERa and pFastBac1-ERb, coding for the full length human estrogen receptors α and β, respectively, were obtained from GenScript. […]
# [2] = molecular target: T2, human estrogen receptor β (Homo sapiens, UniProt Q92731); experiment: Competitive binding, human estrogen receptor β; details: ERβ, full length
# T2 construct: coding for the full length human estrogen receptors α and β, respectively, were obtained from GenScript; made in house; host or cells: HI (Hi5) insect cells, baculovirus; cellular lysate
# T2 sequence (Q92731 whole entry): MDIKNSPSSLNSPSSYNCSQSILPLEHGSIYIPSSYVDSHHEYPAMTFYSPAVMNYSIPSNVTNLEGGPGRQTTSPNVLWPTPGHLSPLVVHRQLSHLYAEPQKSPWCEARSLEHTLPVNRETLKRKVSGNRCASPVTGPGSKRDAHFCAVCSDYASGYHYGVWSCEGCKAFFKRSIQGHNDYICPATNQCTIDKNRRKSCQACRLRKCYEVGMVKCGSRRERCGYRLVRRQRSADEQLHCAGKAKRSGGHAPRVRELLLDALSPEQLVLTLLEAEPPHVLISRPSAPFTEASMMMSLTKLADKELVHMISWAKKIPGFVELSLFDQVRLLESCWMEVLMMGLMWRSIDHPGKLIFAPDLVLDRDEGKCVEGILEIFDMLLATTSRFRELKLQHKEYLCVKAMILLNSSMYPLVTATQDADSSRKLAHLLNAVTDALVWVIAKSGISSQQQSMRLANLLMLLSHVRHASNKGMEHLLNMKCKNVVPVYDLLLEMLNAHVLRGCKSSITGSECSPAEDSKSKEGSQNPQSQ
# Procedure: as §1, §2
# human PR-B receptor = molecular target: T3, human PR-B receptor (Homo sapiens, UniProt P06401); experiment: PR-B transactivation (CHO, MMTV-LUC); assay type: cell-based
# T3 sequence (P06401 1-933): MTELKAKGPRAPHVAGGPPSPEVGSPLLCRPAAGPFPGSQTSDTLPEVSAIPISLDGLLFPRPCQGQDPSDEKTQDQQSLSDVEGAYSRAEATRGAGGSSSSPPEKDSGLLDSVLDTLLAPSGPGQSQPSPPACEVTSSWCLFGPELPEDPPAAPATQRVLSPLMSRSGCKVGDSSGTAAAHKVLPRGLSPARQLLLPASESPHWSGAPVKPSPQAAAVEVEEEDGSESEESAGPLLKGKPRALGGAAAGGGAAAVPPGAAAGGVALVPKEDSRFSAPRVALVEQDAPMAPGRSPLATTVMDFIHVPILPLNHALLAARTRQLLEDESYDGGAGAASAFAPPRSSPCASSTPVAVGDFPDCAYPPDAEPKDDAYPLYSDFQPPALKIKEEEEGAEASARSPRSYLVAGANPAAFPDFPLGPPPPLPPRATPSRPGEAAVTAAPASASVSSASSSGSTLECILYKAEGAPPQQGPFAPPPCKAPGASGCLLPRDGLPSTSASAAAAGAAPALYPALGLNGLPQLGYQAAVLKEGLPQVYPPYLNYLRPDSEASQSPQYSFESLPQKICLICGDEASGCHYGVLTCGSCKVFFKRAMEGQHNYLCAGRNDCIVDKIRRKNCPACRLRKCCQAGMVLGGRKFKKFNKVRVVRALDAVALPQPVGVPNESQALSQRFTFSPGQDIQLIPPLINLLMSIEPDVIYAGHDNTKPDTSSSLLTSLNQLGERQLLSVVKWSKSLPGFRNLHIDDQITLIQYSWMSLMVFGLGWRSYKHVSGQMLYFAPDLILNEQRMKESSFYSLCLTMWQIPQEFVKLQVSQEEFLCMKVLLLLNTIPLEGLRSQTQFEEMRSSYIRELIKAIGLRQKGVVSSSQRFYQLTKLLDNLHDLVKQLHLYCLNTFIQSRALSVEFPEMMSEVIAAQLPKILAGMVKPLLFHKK
# Excerpt: The vector pcDNA3.1 coding sequence for the full length of human PRA and PRB (cDNA ORF clone in pcDNA3.1+/C-(K)-DYK) was used as an expression vector for PR isoform A and B, respectively. Vector pGL4.36 coding for the progesterone responsive element MMTV and firefly luciferase reporter vector [luc2P/Hygro] were used as reporter systems (pGL4.36-MMTV/LUC).
# A sufficient transactivation signal was achieved using stable transfection for the human PRA and PRB receptors and transient transfection for the MMTV-luciferase reporter gene. Therefore, the first stable transfection with the receptor of interest was performed. Thus, 0.5x10^6 CHO cells per well were plated into 6-well plates in transfection medium w/o antibiotics (RPMI phenol-free, 10% FBS,2mM L-glutamine). When the cells reached 80% confluency, transfection with receptor using FuGENE 6 in Opti-MEM medium was accomplished according to the manufacturer’s instruction. After 48h of transfection, stably transfected cells were cultured in a growth medium containing an antibiotic (G418 500 µg/mL). Only cells with the resistance gene (resistance to G418), which had been transfected together with the DNA for PRA and PRB were able to grow in this medium. Consequently, growing cell clones were selected for further steps as stable transfectants. The CHO cells stably transfected with the expression of PRA or PRB were transiently transfected with promoter MMTV/LUC vectors. For this purpose, cells with a density of 12.5x10^3 per well in a 96-well plate were transfected using transfection reagent FuGENE and Opti-MEM medium, following the manufacturer’s instructions. The recovery of cells lasted 24h and they were then moved into the culture medium and treated for 24h with test compounds.
# After 24h incubation of cells with tested compounds, luciferase activity was measured using a VICTOR™ X Multilabel Plate Reader -Perkin Elmer.
# [3] = system: orchiectomized male Wistar rats; experiment: Hershberger assay; assay type: in vivo, rat; details: 3, 10 and 30 mg/animal/day s.c., 7 days; ± Testosterone propionate 1 mg/animal/day
# Procedure: To test EC313 for potential androgenic or anti-androgenic potential, the Hershberger assay was used. Orchiectomized male Wistar rats were treated for 7 consecutive days with daily subcutaneous injections of EC313 (3, 10, and 30 mg/animal/day).
# The potential anti-androgenic activity was assessed by co-administration of Testosterone propionate (TP; 1 mg/animal/day s.c.), which also served as the positive control, and EC313. The vehicle served as the negative control. One day after the last treatment, animals were sacrificed and the prostate gland and the seminal vesicles were removed and weighed. The relative weight of these organs, expressed as mg/100 g body weight, served as the endpoint.
# GR = molecular target: T4, GR (Homo sapiens, UniProt P04150); experiment: Competitive binding, full length human glucocorticoid receptor; set-up: made in house; host or cells: HI (Hi5) insect cells, baculovirus; cellular lysate
# T4 sequence (P04150 1-777): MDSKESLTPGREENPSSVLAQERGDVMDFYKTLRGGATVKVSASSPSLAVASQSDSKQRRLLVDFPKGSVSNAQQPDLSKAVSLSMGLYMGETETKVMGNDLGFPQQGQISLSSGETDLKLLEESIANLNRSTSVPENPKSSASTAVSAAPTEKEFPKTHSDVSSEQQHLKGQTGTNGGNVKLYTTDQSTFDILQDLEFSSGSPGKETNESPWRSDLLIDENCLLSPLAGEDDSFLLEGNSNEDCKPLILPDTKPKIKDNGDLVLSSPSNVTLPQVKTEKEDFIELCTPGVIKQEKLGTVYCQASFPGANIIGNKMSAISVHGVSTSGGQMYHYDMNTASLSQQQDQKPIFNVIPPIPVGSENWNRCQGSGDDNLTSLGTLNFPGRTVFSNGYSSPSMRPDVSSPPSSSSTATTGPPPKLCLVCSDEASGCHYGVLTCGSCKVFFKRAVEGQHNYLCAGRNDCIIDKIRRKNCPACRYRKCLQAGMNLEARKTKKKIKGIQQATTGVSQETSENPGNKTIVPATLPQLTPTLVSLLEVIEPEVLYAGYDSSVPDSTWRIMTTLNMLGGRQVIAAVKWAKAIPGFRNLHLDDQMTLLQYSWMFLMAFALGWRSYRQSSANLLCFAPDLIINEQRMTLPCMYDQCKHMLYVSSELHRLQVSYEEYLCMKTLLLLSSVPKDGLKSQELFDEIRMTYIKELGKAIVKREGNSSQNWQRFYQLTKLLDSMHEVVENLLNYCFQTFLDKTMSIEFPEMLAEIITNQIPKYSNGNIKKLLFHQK
# Procedure: as §1
smiles,measurement,setting,value
C[C@]12C[C@H](c3ccc(-c4ccoc4)cc3)C3=C4CCC(=O)C=C4CC[C@H]3[C@@H]1CC[C@]21OCCC1=C(F)F [EC313],competitive displacement of [3H]-estradiol,[1],did not cause any competitive displacement
same,competitive displacement of [3H]-estradiol,[2],did not cause any competitive displacement
same,potency relative to Mifepristone,human PR-B receptor; PR-B antagonism,approximately 13%
same,agonistic activity,"human PR-B receptor; PR-B, high nM concentrations",Only marginal agonistic activity
same,IC50,"human PR-B receptor; PR-B, set of 6 experiments, Promegestone 1.0 nM, read-out: average IC50, antagonism",2.5 ± 0.7 nM
same,androgenic / anti-androgenic effects (prostate plus seminal vesicle weights),[3],neither significant androgenic nor anti-androgenic effects
same,Comp. Coefficient,GR; EC313 relative to Dexamethasone,12 and 11.8
same,IC50,GR; tritiated ligand displacement,226 ± 9 nM
